Like-named read-outs stand apart in the source and are kept apart here.
Tested on: Mycobacterium tuberculosis
Format: cell-based
[1] = anti-tuberculosis drug alone, […]

## NNC(=O)c1ccncc1 [Isoniazid]
[1]
  number of intracellular Mycobacterium tuberculosis: the number of Mycobacterium tuberculosis was reduced

## CC[C@@H](CO)NCCN[C@@H](CC)CO [Ethambutol]
  number of intracellular Mycobacterium tuberculosis: the number of Mycobacterium tuberculosis was reduced

## NC(=O)c1cnccn1 [Pyrazinamide]
[1]
  number of intracellular Mycobacterium tuberculosis: the number of Mycobacterium tuberculosis was reduced

— US10709765B2, “Composition for inhibiting survival or growth of tubercle bacillus by adjusting polarization of macrophage, and method using same” (priority 2016, dated 2020)
